In patent publication US20230277575A1 (priority 2020, published 2023):

What was measured:
[1] = tested on: SARS-CoV-2; test: SARS-CoV-2 virus production in Vero E6 cells (TCID50); type: cell-based; conditions: for antiviral activity (conclusion, in words): SARS-CoV-2; for IC50: Severe acute respiratory syndrome coronavirus 2, Vero C1008, TCID50, Vero E6 cells, MOI 10^−3; for virus production (in words): increased drug concentration, dose response
Description: (§1) Seeding of cells and treatment with compound of interest were performed with each compound in triplicate at 5 concentrations, including negative and positive controls. Infection with SARS-CoV-2 was performed at one MOI (multiplicity of infection). Viral particles were recovered in the supernatant after incubation and quantification using TCID50 (tissue culture infectious dose 50%) and RT-PCR was performed. Toxicity measurement of compounds was made on separate cell lines. D1: cell seeding on 96 wells plate, Vero E6 cells. Growth conditions: medium DMEM high glucose (Dutsher L0104-500, lot MS008A) D2: dilution of compounds was carried out in a mix of 100% DMSO diluted to 50% in PBS (NACL-2) or in PBS at […] to avoid solubility issues of some compounds. Compounds were tested at 5 concentrations, from 10^−4 M to 10^−8 M by serial tenfold dilutions. Infection with SARS-CoV-2 clinical strain was performed to MOI 10^−3. D3: viral titers were determined by TCID50 method and calculated by the Spearman & Kärber algorithm. RT-qPCR on gene E of SARS-CoV-2 was determined by Taqman One-Step RT-qPCR. Infection process: at T0 infection was performed with SARS-CoV-2 MOI 10^−3 (0.001). At T0+1 h virus was removed and the plates were washed with PBS (2×1 mL), 1 mL medium was then added with compound from 100 μM to 10 nM. A 24 h incubation step was carried out. At T0+25 h, 500 μL of supernatant was recovered and TCID50 processing and RT-qPCR were performed. Following 4 additional days of incubation the endpoint was obtained and TCI D50 reading and calculation was performed.

[2] = tested on: SARS-CoV-2; test: SARS-CoV-2 genome copy number by RT-qPCR on gene E (Vero E6 cells); type: cell-based; conditions: for genome copy number (in words): increased drug concentration
Description: as §1

[3] = in vitro; conditions: human
[4] = Toxicity testing on Vero cells; conditions: African green monkey, Vero cells, CC50, Vero cells, 24 h post treatment
[5] = tested on: Vero cells; test: Toxicity testing on Vero cells; conditions: for CC50: Vero cells, 24 h post treatment

Row | Structure (SMILES) | antiviral activity (conclusion, in words) [1] | IC50 [1] | virus production (in words) [1] | IC50 times lower than that of NACI-1 ([1]; virus production IC50) | genome copy number (in words) [2] | CC50 [3] | CC50 at 24 h [4] | CC50 [5] | log decrease in viral production ([1]; at 10 μM) | toxicity observed in virus production test ([1]; at 100 μM) | IC50 times lower than that of Remdesivir ([1]; virus production IC50) | IC50 ([2]; Severe acute respiratory syndrome coronavirus 2, Vero C1008, RT-qPCR on gene E, Vero E6 cells) | log decrease in copy genome ([2]; at 10 μM) | toxicity observed in RT-qPCR test ([2]; at 100 μM) | CC50 ([5]; listed as clitocine) | toxicity on Vero cells (in words) ([5]; depending on the concentration used)
1 | NC(=O)c1ncn([C@@H]2O[C@H](CO)[C@@H](O)[C@H]2O)c1O [Mizoribine, 1-[(2R,3R,4S,5R)-3,4-dihydroxy-5-(hydroxymethyl)oxolan-2-yl]-5-hydroxy-1H-imidazole-4-carboxamide] | Potent antiviral activity | 0.66 µM | decrease significantly | 3 times | does not impact | 850 µM | 191 µM | 191 µM | – | – | – | – | – | – | – | –
2 | Nc1ncnc(N[C@@H]2O[C@H](CO)[C@@H](O)[C@H]2O)c1[N+](=O)[O-] [Compound 1, (2R,3R,4S,5R)-2-[(6-amino-5-nitropyrimidin-4-yl)amino]-5-(hydroxymethyl)oxolane-3,4-diol] | Potent antiviral activity | 0.188 µM | decrease significantly | – | decrease significantly | 108 µM | 3.09 µM | – | 3 log | some toxicity was observed | 5 times | 0.176 µM | ~2 log | some toxicity was observed | 3.09 µM | some degree of toxicity
